This is an account of results in a melting point compilation (Tetko et al.; mined from patent text by program, amines drawn as free bases though some values may be those of a salt).

Structures are written as SMILES.

Take `COc1cc(C(=O)COC(C)=O)ccc1OCCCN1CCC(C(O)(c2ccc(F)cc2)c2ccc(F)cc2)CC1`: the melting point (usually the temperature of the solid-liquid transition) lay in the range of 138 to 140 °C. Under `CN1CCN(c2ccc(Nc3ncc4ccc(-c5ccccc5OCC(=O)OC(C)(C)C)n4n3)cc2)CC1` stands 193 to 195 °C. Under `O=c1[nH]c2ccccc2c(=O)n1C1CCCCC1` stands 236 to 238 °C; under `Cc1ccc2c(c1)C(=O)CC21CNC(=O)C1` (stereo unspecified), 162 to 164 °C; under `CC1(C)Cc2c(c(O)cc3c2C(c2cccc(-c4ccc(NC(=O)OCc5ccccc5)cc4)c2)=NCC3(C)C)O1`, 161 to 165 °C.

In turn, `N#CCc1cccc2c1C=CN(C(=O)c1ccccc1)C2C#N` (stereo unspecified) registered a melting point of 66.4 to 69.7 °C. With `O=C1c2ccccc2C(=O)N1OCF` the figure was 126 to 127 °C; with `Cc1c(C(=O)OCc2ccccc2)sc(NC(=O)C(F)(F)F)c1C(=O)OC(C)(C)C`, 136 to 138 °C; with `c1ccc2c(c1)NCCCO2`, 50 to 51 °C.

As for `FC(F)Oc1ccc2nc(NC3=NCC4(CN5CCC4CC5)O3)sc2c1` (stereo unspecified), the melting point lay in the range of 223 to 225 °C. With `COCCn1nc(C(N)=O)cc1CC(C)(C)C#N` the figure was 130 to 131 °C.

In turn, `NC(=O)c1sc2ccc(Br)cc2c1-c1ccccc1` showed a melting point of 201 to 202 °C.

The compound `Nc1nc2c(sc(=O)n2C2CC(O)C(CO)O2)c(=O)[nH]1` (stereo unspecified) had a melting point above 170 °C. `O=C1c2ccccc2OCN1CCCCCO[N+](=O)[O-]` gave a melting point of 39 to 41 °C.

Turning to `CCCCC(=O)c1c(-c2ccc3c(Br)c(OCC(=O)OCC)ccc3c2)oc2ccc(Cl)cc12`, the melting point lay within 88 to 91 °C.

With `O=C1C2C(C(=O)N1Cc1ccccc1)C2[N+](=O)[O-]` (stereo unspecified), the melting point lay within 108 to 109 °C. Under `COC(=O)N1CCC(Nc2ncc3ncnc(Nc4ccc(F)c(Cl)c4)c3n2)CC1` stands 213 to 215 °C; under `COc1c(C(=O)O)cccc1[N+](=O)[O-]`, 224 to 226 °C. Under `Fc1ccc(-c2nc(-c3ccc(CN4CCOCC4)cc3)[nH]c2-c2ccncc2)cc1` stands 242 to 243 °C; under `CC(C)(C)OC(=O)N1CC(COS(C)(=O)=O)c2c1cc(OCc1ccccc1)c1ncccc21` (stereo unspecified), 156 to 157 °C; under `FC(F)(F)c1cc(Cl)c(-c2nc(Br)c(Br)[nH]2)c(Cl)c1`, 328 to 329 °C. Under `CC(=O)Nc1ccc(-c2cc(C(=O)c3ccc(S(C)(=O)=O)cc3)sc2N2CCOCC2)cc1` stands 177 °C. In turn, `CC(C)=CCC/C(C)=C/CSc1nc2cc(F)c(Cl)cc2[nH]1` displayed a melting point of 122 to 124 °C. With `Cc1ccc(N2C(=O)N(CC(=O)Nc3c(C(C)C)cccc3C(C)C)C(=O)C23CCN(C(=O)OC(C)(C)C)CC3)cc1` the figure was 227 to 229 °C. Under `Cc1ccccc1CC(=NC#N)NC(NC(=O)CCCCc1ccccc1)C(C)(C)C` (stereo unspecified) stands 151 to 152 °C; under `c1ccc(COc2ccc(-c3cscn3)cc2)cc1`, 109 to 110 °C; under `Cc1nc[nH]c1CSCCN=C(NC#N)NCCO`, 146 to 147 °C. `CCc1cccc(C)c1CNc1cc(C(=O)O)cc2c1nc(C)n2C` had a melting point of 312 to 314 °C. Under `CC(=O)N1C(C)(C)CC(NC(=O)c2ccc(Cl)c(N)c2)CC1(C)C` stands 232 to 234 °C; under `CC(=O)SCC(Cc1ccccc1)C(=O)NCc1ccc(C(=O)OCc2ccccc2)cc1` (stereo unspecified), 142 to 143 °C.

`Cc1c2c(nn1-c1ccc(Cl)cc1F)CCCC2` gave a melting point of 84.5 to 87.5 °C. Under `NC(=O)c1cccc(Oc2ncccc2C(=O)NCc2ccccc2Cl)c1` stands 153 to 155 °C. `CSc1nc(=O)cc(N)n1-c1ccc(C)cc1` gave a melting point of 130 to 132 °C. With `O=C(CCCCN1CCCCC1)c1ccc2c(c1)Cc1cc(C(=O)CCCCN3CCCCC3)ccc1S2` the figure was 98.5 to 99.5 °C. With `O=c1[nH]c2ccc(Cl)cc2c(=O)o1` the figure was 200 °C. With `O=C(c1ccn2c1CSC2c1cccnc1)c1c[nH]c2ccccc12` (stereo unspecified) the figure was 237 to 238 °C.

With `Cc1nn2c(c1C(N)=O)NCCC2`, the melting point is 234 to 236 °C. Under `O=C1NC(=O)C2(CCCCC2)N1c1ccc(I)cc1` stands 249 to 251 °C; under `COc1ccc(-c2nsc(SN)n2)cc1`, 136 to 139 °C. Under `CC(=O)C(CCS(C)(=O)=O)(CCS(C)(=O)=O)C(C)=O` stands 162 °C; under `O=C(O)COc1ccc2cc(CNC(=O)c3cnn(-c4ccc(Cl)cc4)c3C(F)(F)F)ccc2c1`, 189 to 191 °C. The compound `CCCCN1CCN(c2nsc3nc4ccccc4n23)CC1` came in with a melting point of 121 to 122 °C. With `O=C(O)C1CCC2CCC(=O)N21` (stereo unspecified) the figure was 145 to 148 °C; with `Cc1cn(C)c(=O)n(-c2cc(C(=O)OC(C)C)c(Cl)cc2F)c1=O`, 177 to 180 °C. Under `COc1cc(C2c3cc4c(cc3C(NC3=CC(=O)N(Cc5ccc(NC(C)=O)cc5)C3=O)C3COC(=O)C23)OCO4)cc(OC)c1O[Si](C)(C)C(C)(C)C` (stereo unspecified) stands 177 to 179 °C; under `CCOC(=O)CS(=O)(=O)CCCC=C1SC=CS1`, 79.5 to 81 °C; under `CCc1nc(O)c2sccc2n1`, 233 to 237 °C. With `CC(C)(C)OC(=O)Nc1ccc(C#Cc2ccc(F)cc2)cc1N` the figure was 180 °C. `FC(F)(F)Oc1ccc2nc(Cc3ccc4c(c3)CCCC4)[nH]c2c1` gave a melting point of 88 to 90 °C. Under `Cc1ccc(S(=O)(=O)OCC(=O)C(=NO)C(=O)OC(C)(C)C)cc1` stands 106 to 108 °C; under `CCOc1ccc(C2=NNCCC2)cc1OCC`, 77 to 78 °C; under `Clc1cccc(CSc2ccncc2)c1`, 222 to 224 °C. With `Nc1nn(-c2ccccc2)cc1CO` the figure was 127 to 128 °C; with `COCc1cc(O)nc2nc(N)ccc12`, above 290 °C. `COc1cc(O[Si](C)(C)C(C)(C)C)c(C)c(C(=O)O)c1Br` came in with a melting point of 120 to 125 °C. With `CN(C(=O)c1ccccc1)C1CCC(=O)CC1` the figure was 126 to 128 °C; with `O=C1C=C(NC(=O)C(=O)c2cn(Cc3c(F)cccc3F)c3ccccc23)CO1`, 252 to 256 °C; with `COc1cc2c(cc1OC)CN(CCCOc1ccc(NC(=O)c3cccc4c(=O)c5cccc(OC)c5[nH]c34)cc1)CC2`, 190 °C. `Cc1cc(Sc2sc(-c3ccc(C(F)(F)F)cc3)nc2C)ccc1Cc1nn[nH]n1` displayed a melting point of 248 °C. For `O=C(O)CCC(=NO)c1ccc(-c2cccc(F)c2)cc1`, the melting point is 155 to 157 °C. With `CCN(CC)C(=O)C=Cc1cc(OC)c(OC)c(OC)c1` the figure was 132 °C; with `CCc1c(-c2ccc(N(C)C)nn2)ssc1=S`, 160 °C. With `N#CC(N)COc1ccccc1` (stereo unspecified) the figure was 65 °C. Under `CCOC(=O)[C@@H](O)[C@@H]1OC(=O)c2c1cc(OC)c(OC)c2OC` stands 111 to 112 °C; under `CN1CCC[C@H]1c1cnccc1C(O)(c1ccccc1)c1ccccc1`, 232 to 234 °C; under `Clc1cc(Cl)c(Cl)nn1`, 57 to 58 °C.
